Results taken from PubChem BioAssay (NCI).
Several values for one entry are separate records, joined by “and”; a condition that tells them apart may be missing. Identical values can stand only once.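 Values below derive from 48-hour exposures of cells grown in 96-well plates, with endpoints linearly interpolated between the two concentrations bracketing the appropriate inhibition level. GI50 = concentration required for 50% inhibition of growth. TGI denotes the concentration required for complete inhibition of growth.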 Where a SMILES comes first, the peptide text is derived from it. [ ]: non-standard residue; d: D form. The star is where a group is joined. ξ: configuration not given here. NMeY = CN[C@@H](Cc1ccc(O)cc1)C(=O)O; Cbz = O=C(OCc1ccccc1)*; ξA = CC(N)C(=O)O

How the values were obtained:
Test in all cases: growth of human tumour cells (NCI), 48 h
[1] = tested on: HOP-92 NSCLC
[2] = tested on: NCI-H522 lung
[3] = tested on: CCRF-CEM leukemia
[4] = tested on: SK-MEL-5 melanoma
[5] = tested on: SR leukemia
[6] = tested on: SF-295 CNS
[7] = tested on: HCT-116 colon
[8] = tested on: MCF7 breast
[9] = tested on: RPMI-8226 leukemia
[10] = tested on: OVCAR-4 ovarian

| Compound | TGI [1] | TGI [2] [µM] | TGI [3] | TGI [4] | TGI [5] | TGI [6] | TGI [7] | TGI [8] | TGI [9] | TGI [10] | GI50 [1] [µM] | GI50 [3] [µM] | GI50 [4] [µM] | GI50 [5] [µM] | GI50 [6] [µM] | GI50 [7] [µM] | GI50 [8] [µM] | GI50 [9] [µM] | GI50 [10] [µM] |
| --- | --- | --- | --- | --- | --- | --- | --- | --- | --- | --- | --- | --- | --- | --- | --- | --- | --- | --- | --- |
| CCOC(=O)/C=C(/C(=O)OCC)n1ccc(=O)n(Cc2cn(CCCCOC(C)=O)nn2)c1=O | 20.6 µM | 29.3 | 35.3 µM | > 100 µM | > 100 µM | > 100 µM | > 100 µM | > 100 µM | > 100 µM | > 100 µM | – | – | – | – | – | – | – | – | – |
| Cc1cn(C2CC(O)C(Cn3nncc3Cn3cnc4c(N)ncnc43)O2)c(=O)[nH]c1=O (configuration not stated) | > 100 µM | > 100 | > 100 µM | > 100 µM | > 100 µM | > 100 µM | > 100 µM | > 100 µM | > 100 µM | > 100 µM | – | – | – | – | – | – | – | – | – |
| C=CC(C)(C)NC(C(=O)N1CCC[C@H]1c1nc(-c2nc(C(=O)OCC=C(C)C)c(C)o2)c(C)o1)C(C)C (some centres not stated) | > 100 µM | > 100 | > 100 µM | > 72.7 µM | > 100 µM | > 74.8 µM | > 100 µM | > 82.8 µM | > 100 µM | > 100 µM | – | – | – | – | – | – | – | – | – |
| O=S(=O)(O)c1c(Cl)c(Cl)c(O)c2ncccc12 | 47.8 µM | 21.4 | 31.7 µM | 28.6 µM | 27.6 µM | 33.2 µM | 16.6 µM | 21.6 µM | > 83.6 µM | 47.1 µM | – | – | – | – | – | – | – | – | – |
| Cc1cc(-c2nc3cc(F)ccc3s2)ccc1N | > 78 µM | > 100 | > 100 µM | > 82.3 µM | > 100 µM | > 100 µM | > 91 µM | 2.72 µM | > 100 µM | – | – | – | – | – | – | – | – | – | – |
| OC1C2CCCCN2C[C@@H](O)[C@H]1O (some centres not stated) | > 100 µM | > 100 | > 100 µM | > 100 µM | > 100 µM | > 100 µM | > 100 µM | > 100 µM | > 100 µM | > 100 µM | – | – | – | – | – | – | – | – | – |
| COc1ccc(/C(C)=C2\CCCN(Cc3ccccc3)C2)cc1 | 60.4 µM | 26.4 | 62.2 µM | 36.8 µM | 42.2 µM | 35.1 µM | – | 37.8 µM | 47.4 µM | > 100 µM | – | – | – | – | – | – | – | – | – |
| Cn1c2ncccc2n2c(=O)cc(O)cc12 | 81.4 µM | > 100 | > 100 µM | > 100 µM | > 100 µM | > 100 µM | > 100 µM | > 100 µM | > 100 µM | > 100 µM | – | – | – | – | – | – | – | – | – |
| CNC(=O)O/N=C1\N(C)CN(c2ccccc2)C12CCN(CCCC(=O)c1ccc(F)cc1)CC2 | > 100 µM | > 100 | > 100 µM | 33 µM | > 100 µM | > 100 µM | > 100 µM | > 100 µM | > 100 µM | > 100 µM | – | – | – | – | – | – | – | – | – |
| CC(C)(C)OC(=O)N(O)CCCn1cnc2c(NC3CC3)ncnc21 | > 100 µM | > 100 | > 100 µM | > 100 µM | > 100 µM | > 100 µM | > 100 µM | > 100 µM | > 100 µM | > 100 µM | – | – | – | – | – | – | – | – | – |
| CC1(C=O)CC(CCc2ccccc2)NC1Cc1ccc(O)cc1 (configuration not stated) | 30 µM | 35 | 82.7 µM | 29.4 µM | 33.9 µM | 33.8 µM | 29.6 µM | 27.1 µM | 40.7 µM | 29 µM | – | – | – | – | – | – | – | – | – |
| COC(=O)CN1Cc2cc(C)cc(c2O)CN(CC(=O)OC)Cc2cc(C)cc(c2O)CN(CC(=O)OC)Cc2cc(C)cc(c2O)CN(CC(=O)OC)Cc2cc(C)cc(c2O)C1 | > 50 µM and 97.5 µM | > 100 | 50 µM and 33.2 µM | 50 µM and > 100 µM | 50 µM and > 100 µM | 50 µM and > 100 µM | 50 µM and > 100 µM | 50 µM and > 100 µM | 50 µM and > 100 µM | 50 µM and > 100 µM | 21.5 | 5.37 | 37.7 | 18 | 34.1 | 27.7 | 39.9 | 87.6 | 33.1 |
| COc1ccc(COCC[C@H](C)OC2OC(CO[Si](C)(C)C(C)(C)C)C(O)C(O)C2O)cc1 (some centres not stated) | > 100 µM | > 100 | > 100 µM | > 100 µM | > 100 µM | > 100 µM | > 100 µM | > 100 µM | > 100 µM | > 100 µM | – | – | – | – | – | – | – | – | – |
| COc1ccc(C[C@@H](C(=O)N[C@@H](C)C(N)=O)N(C)C(=O)[C@@H]2CCCN2C(=O)[C@H](CC(C)C)NC(=O)C(C)NC(=O)OCc2ccccc2)cc1 (some centres not stated) (Cbz-[ξA]LP[NMeY](Me)A-NH2) | > 100 µM | > 100 | > 100 µM | > 100 µM | > 100 µM | > 100 µM | > 100 µM | > 100 µM | > 100 µM | > 100 µM | – | – | – | – | – | – | – | – | – |
